For this experiment, the system named is M. catarrhalis A894. Description: MIC determination by microdilution in cation-adjusted Mueller-Hinton Broth (NCCLS). Type of experiment: cell-based. Particulars: Moraxella catarrhalis, A894, microdilution method, pH of the test medium 7.2-7.3. The method, then: These assays have been performed following the description given in “Methods for dilution Antimicrobial Susceptibility Tests for Bacteria that Grow Aerobically, 4th ed.; Approved standard: NCCLS Document M7-A4; National Committee for Clinical Laboratory Standards: Villanova, Pa., USA, 1997”. Minimal inhibitory concentrations (MICs; mg/l) were determined in cation-adjusted Mueller-Hinton Broth by a microdilution method following NCCLS guidelines (National Committee for Clinical Laboratory Standards. Methods for Dilution Antimicrobial Susceptibility). The pH of the test medium was 7.2-7.3. All Example compounds were tested against several Gram positive and Gram negative bacteria such as S. aureus, E. faecalis, S. pneumoniae, M. catarrhalis or E.coli.
A general note: Broth dilution looks for growth in wells or tubes with falling amounts of substance.

The structures appear in SMILES notation.

One may read the MIC as the lowest concentration found to suppress growth. Higher therefore signals a less susceptible organism. Regarding `COc1ccc2ncc3c(c2n1)C(CN1CC[C@@H](CNCc2cc4c(cn2)OCCO4)C1)CO3` (mixture of isomers) [Example 12, (2,3-dihydro-[1,4]dioxino[2,3-c]pyridin-7-ylmethyl) -[(3S)-1-((1RS)-8-methoxy-1,2-dihydro-3-oxa-5,9-diaza-cyclopenta[a]naphthalen-1-ylmethyl)-pyrrolidin-3-ylmethyl]-amine], the minimal inhibitory concentration (MIC) is no more than 0.031 µg/mL. The compound `COc1ccc2ncc3c(c2n1)C(CN1CC[C@@H](CNC/C=C/c2cc(F)ccc2F)C1)CO3` (mixture of isomers) [Example 13, [(E)-3-(2,5-difluoro-phenyl)-allyl]-[(3S)-1-((1RS)-8-methoxy-1,2-dihydro-3-oxa-5,9-diaza-cyclopenta[a]naphthalen-1-ylmethyl)-pyrrolidin-3-ylmethyl]-amine] showed a minimal inhibitory concentration (MIC) of no more than 0.031 µg/mL. In the case of `COc1ccc2ncc3c(c2n1)C(CN1CC[C@@H](CNCc2ccc4c(n2)NC(=O)CS4)C1)CO3` (mixture of isomers) [Example 14, 6-({[(3S)-1-((1RS)-8-methoxy-1,2-dihydro-3-oxa-5,9-diaza-cyclopenta[a]naphthalen-1-ylmethyl)-pyrrolidin-3-ylmethyl]-amino}-methyl)-4H-pyrido[3,2-b][1,4]thiazin-3-one] it was no more than 0.031 µg/mL; in that of `COc1ccc2ncc3c(c2n1)C(CN1CCO[C@@H](CNCc2ccc4c(n2)NC(=O)CS4)C1)CO3` (mixture of isomers) [Example 25, 6-({[(2S)-4-((1RS)-8-methoxy-1,2-dihydro-3-oxa-5,9-diaza-cyclopenta[a]naphthalen-1-ylmethyl)-morpholin-2-ylmethyl]-amino}-methyl)-4H-pyrido[3,2-b][1,4]thiazin-3-one], no more than 0.031 µg/mL. The compound `COc1ccc2ncc3c(c2n1)C(CN1CCO[C@@H](CNCc2cc4c(cn2)OCCO4)C1)CO3` (mixture of isomers) [Example 26, (2,3-dihydro-[1,4]dioxino[2,3-c]pyridin-7-ylmethyl) -[(2S)-4-((1RS)-8-methoxy-1,2-dihydro-3-oxa-5,9-diaza-cyclopenta[a]naphthalen-1-ylmethyl)-morpholin-2-ylmethyl]-amine] displayed a minimal inhibitory concentration (MIC) of no more than 0.031 µg/mL. `COc1ccc2ncc3c(c2n1)C(CN1CCC[C@@H](CNCc2ccc4c(n2)NC(=O)CS4)C1)CO3` (mixture of isomers) [Example 28, 6-({[(3S)-1-((1RS)-8-methoxy-1,2-dihydro-3-oxa-5,9-diaza-cyclopenta[a]naphthalen-1-ylmethyl)-piperidin-3-ylmethyl]-amino}-methyl)-4H-pyrido[3,2-b][1,4]thiazin-3-one] had an MIC of no more than 0.031 µg/mL. On to `COc1ccc2ncc3c(c2n1)C(CN1CCC[C@@H](CNCc2ccc4c(c2)NC(=O)CO4)C1)CO3` (mixture of isomers) [Example 31, 6-({[(3S)-1-((1RS)-8-methoxy-1,2-dihydro-3-oxa-5,9-diaza-cyclopenta[a]naphthalen-1-ylmethyl)-piperidin-3-ylmethyl]-amino}-methyl)-4H-benzo[1,4]oxazin-3-one], for which the MIC is no more than 0.031 µg/mL. In turn, `COc1ccc2ncc3c(c2n1)C(CN1CCC[C@@H](CNCc2cc4c(nn2)OCCO4)C1)CO3` (mixture of isomers) [Example 39, (6,7-dihydro-[1,4]dioxino[2,3-c]pyridazin-3-ylmethyl)-[(3S)-1-((1RS)-8-methoxy-1,2-dihydro-3-oxa-5,9-diaza-cyclopenta[a]naphthalen-1-ylmethyl)-piperidin-3-ylmethyl]-amine] displayed an MIC of no more than 0.031 µg/mL. `COc1ccc2ccc3c(c2n1)C(CN1CCC(NC/C=C/c2cc(F)ccc2F)CC1)CO3` (racemic) [Example 1, rac-[(E)-3-(2,5-difluoro-phenyl)-allyl]-[1-(2-methoxy-8,9-dihydro-furo[2,3-h]quinolin-9-ylmethyl)-piperidin-4-yl]-amine] displayed a minimum inhibitory concentration (MIC) of no more than 0.031 µg/mL.
